In patent publication US20120101095A1, “ALKOXY-THIENOPYRIMIDINES AS TGF-BETA RECEPTOR KINASE MODULATORS” (priority 2009, published 2012):

Target: T1, GST-ALK5 (Homo sapiens, UniProt P36897)
T1 sequence (P36897 34-503): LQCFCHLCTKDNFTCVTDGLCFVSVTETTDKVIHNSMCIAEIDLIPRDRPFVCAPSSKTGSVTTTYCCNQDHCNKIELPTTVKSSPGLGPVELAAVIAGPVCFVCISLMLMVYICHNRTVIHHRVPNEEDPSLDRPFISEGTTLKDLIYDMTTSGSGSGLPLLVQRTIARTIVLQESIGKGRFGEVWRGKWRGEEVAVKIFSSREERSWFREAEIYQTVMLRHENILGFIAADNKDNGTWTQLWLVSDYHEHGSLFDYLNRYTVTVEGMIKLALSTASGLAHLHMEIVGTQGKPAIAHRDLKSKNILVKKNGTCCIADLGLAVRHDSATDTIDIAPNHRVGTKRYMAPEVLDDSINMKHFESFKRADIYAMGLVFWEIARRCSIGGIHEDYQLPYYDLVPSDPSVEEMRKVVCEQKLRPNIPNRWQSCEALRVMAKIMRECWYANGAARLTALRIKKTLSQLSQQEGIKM
Test: In-vitro (enzyme) kinase assay, 384-well flashplate, GST-SMAD2 substrate
Assay type: biochemical
Conditions: 31.2 nM GST-ALK5, 439 nM GST-SMAD2, 3 mM ATP, 30° C., 45 min
Procedure: In-Vitro (Enzyme) Assay for Determination of the Efficacy of Inhibitors of the Inhibition of TGF-Beta-Mediated Effects
The kinase assay was carried out as 384-well flashplate assay. 31.2 nM of GST-ALK5, 439 nM of GST-SMAD2 and 3 mM of ATP (with 0.3 μCi of ^33P-ATP/well) were incubated in a total volume of 35 μl (20 mM of HEPES, 10 mM of MgCl2, 5 mM of MnCl2, 1 mM of DTT, 0.1% of BSA, pH 7.4) without or with test substance (5-10 concentrations) at 30° C. for 45 min. The reaction was stopped using 25 μl of 200 mM EDTA solution, filtered with suction at room temperature after 30 min, and the wells were washed with 3 times 100 μl of 0.9% NaCl solution. Radioactivity was measured in the TopCount. The IC50 values were calculated using RS1 (Table 1). Above and below, all temperatures were indicated in ° C.

SMILES	IC50 [nM]
NC(=O)c1sc2nc(OCCO)nc(-c3cccc(C(F)(F)F)c3)c2c1N [No 15, 5-Amino-2-(2-hydroxy-ethoxy)-4-(3-trifluoromethyl-phenyl)-thieno[2,3-d]pyrimidine-6-carboxylic acid amide]	500 to 1000
NC(=O)c1sc2nc(OCC3CCC3)nc(-c3cccc(C(F)(F)F)c3)c2c1N [No 10, 5-Amino-2-cyclobutylmethoxy-4-(3-trifluoromethyl-phenyl)-thieno[2,3-d]pyrimidine-6-carboxylic acid amide]	> 1000
NC(=O)c1sc2nc(OCCO)nc(-c3cccc(Cl)c3)c2c1N [No 13, 5-Amino-4-(3-chloro-phenyl)-2-(2-hydroxy-ethoxy)-thieno[2,3-d]pyrimidine-6-carboxylic acid amide]	100 to 500
COCc1cnn(CCOc2nc(-c3cccc(Cl)c3)c3c(N)c(C(N)=O)sc3n2)c1 [No 52, 5-Amino-4-(3-chloro-phenyl)-2-[2-(4-methoxymethyl-pyrazol-1-yl)-ethoxy]-thieno[2,3-d]pyrimidine-6-carboxylic acid amide]	100 to 500
NC(=O)c1sc2nc(OC[C@@H]3CCC(=O)N3)nc(-c3cccc(Cl)c3)c2c1N [No 75, 5-Amino-4-(3-chloro-phenyl)-2-((S)-5-oxo-pyrrolidin-2-ylmethoxy)-thieno[2,3-d]pyrimidine-6-carboxylic acid amide]	100 to 500
Cc1ccc(-c2nc(OCc3ccncc3)nc3sc(C(N)=O)c(N)c23)o1 [No 30, 5-Amino-4-(5-methyl-furan-2-yl)-2-(pyridin-4-ylmethoxy)-thieno[2,3-d]pyrimidine-6-carboxylic acid amide]	500 to 1000
NC(=O)c1sc2nc(OCC3CC3)nc(-c3cc4ccccc4s3)c2c1N [No 2]	> 1000
NC(=O)c1sc2nc(OCC3CCCC3)nc(-c3cccc(Cl)c3)c2c1N [No 7, 5-Amino-4-(3-chloro-phenyl)-2-cyclopentylmethoxy-thieno[2,3-d]pyrimidine-6-carboxylic acid amide]	500 to 1000

Now from value to compound:

IC50 [nM]	SMILES
< 100	NC(=O)c1sc2nc(OCc3ccn(CCO)n3)nc(-c3cccc(Cl)c3)c2c1N [No 74, 5-Amino-4-(3-chloro-phenyl)-2-[1-(2-hydroxy-ethyl)-1H-pyrazol-3-ylmethoxy]-thieno[2,3-d]pyrimidine-6-carboxylic acid amide]
100 to 500	NC(=O)c1sc2nc(OCCOCCO)nc(-c3cccc(Cl)c3)c2c1N [No 66, 5-Amino-4-(3-chloro-phenyl)-2-[2-(2-hydroxy-ethoxy)-ethoxy]-thieno[2,3-d]pyrimidine-6-carboxylic acid amide]
< 100	Cc1cccc(-c2nc(OCCO)nc3sc(C(N)=O)c(N)c23)n1 [No 26, 5-Amino-2-(2-hydroxy-ethoxy)-4-(6-methyl-pyridin-2-yl)-thieno[2,3-d]pyrimidine-6-carboxylic acid amide]
< 100	Cn1cnc(COc2nc(-c3cccc(Cl)c3)c3c(N)c(C(N)=O)sc3n2)c1 [No 45, 5-Amino-4-(3-chloro-phenyl)-2-(1-methyl-1H-imidazol-4-ylmethoxy)-thieno[2,3-d]pyrimidine-6-carboxylic acid amide]
< 100	N#CCCOc1nc(-c2cccc(Cl)c2)c2c(N)c(C(N)=O)sc2n1 [No 72, 5-Amino-4-(3-chloro-phenyl)-2-(2-cyano-ethoxy)-thieno[2,3-d]pyrimidine-6-carboxylic acid amide]
< 100	Cc1cccc(-c2nc(OCc3cn(C)cn3)nc3sc(C(N)=O)c(N)c23)n1 [No 40, 5-Amino-2-(1-methyl-1H-imidazol-4-ylmethoxy)-4-(6-methyl-pyridin-2-yl)-thieno[2,3-d]pyrimidine-6-carboxylic acid amide]
< 100	Cn1nccc1COc1nc(-c2cccc(Cl)c2)c2c(N)c(C(N)=O)sc2n1 [No 47, 5-Amino-4-(3-chloro-phenyl)-2-(2-methyl-2H-pyrazol-3-ylmethoxy)-thieno[2,3-d]pyrimidine-6-carboxylic acid amide]
